Activity calls are given as the source filed them.

Results on 7 compounds are retold here after ChEMBL document CHEMBL1201862, “PubChem BioAssay data set” (2004).

Experiment [1] deals with Sphingosine 1-phosphate receptor 2 (Homo sapiens, UniProt O95136). As to the kind of experiment: Dose Response Cell Based Assay for Agonists of the S1P2 Receptor of Purchased Analogues. [Related pubchem assays: 729, 843, 854, 736 ]. The format is functional.
Experiment [2] has as its target T1, E3 ubiquitin-protein ligase XIAP (Homo sapiens, UniProt P98170). The experiment in a line: Counter Screen using XIAP-Bir3 for Chemical Antagonists of Bir1/2 domains of IAP-family anti-apoptotic proteins. [Related pubchem assays (depositor defined):AID1018, AID1449, AID1514, AID1638, AID1749, AID1750, AID488957, AID488963]. (A counterscreen serves to expose hits that act by an unwanted route or on another target.)

Experiment [3] concerns the target T1, E3 ubiquitin-protein ligase XIAP. The experiment in a line: small molecules displacing peptide from XIAP – biochemical, IAP family, fluorescence polarization (AID 1018). The experiment is classed as functional. (In general: Fluorescence polarisation rises when a labelled molecule tumbles more slowly, as on binding a larger partner.)
Experiment [4] is described as follows: M. tuberculosis H37Rv growth inhibitors, H37Rv strain (AID 1626). The experiment is classed as functional.
The target of experiment [5] is Beta-2 adrenergic receptor (Homo sapiens, UniProt P07550). The experiment in a line: ADRB2 activation measured by internalization – cell-based, FAP fluorogen, flow cytometry, cherry pick 1, dose response (AID 588763). The format is functional.
Chain of Beta-2 adrenergic receptor (P07550 whole entry): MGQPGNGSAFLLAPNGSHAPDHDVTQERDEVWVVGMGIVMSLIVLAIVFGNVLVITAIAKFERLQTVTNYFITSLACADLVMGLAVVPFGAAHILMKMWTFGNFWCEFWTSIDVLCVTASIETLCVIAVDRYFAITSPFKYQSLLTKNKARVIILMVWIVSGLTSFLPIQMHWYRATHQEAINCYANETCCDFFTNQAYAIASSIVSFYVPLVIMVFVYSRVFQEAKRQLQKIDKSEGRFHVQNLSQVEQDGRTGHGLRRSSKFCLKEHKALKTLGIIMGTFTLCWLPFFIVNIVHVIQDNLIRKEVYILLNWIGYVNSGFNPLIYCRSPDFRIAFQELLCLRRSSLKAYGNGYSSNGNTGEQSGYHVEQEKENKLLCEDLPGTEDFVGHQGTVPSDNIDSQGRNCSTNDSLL
A short description of experiment [6]: non-specific 3'UTR reporter inhibition in Clone20-Shn3RL – cell-based, Renilla luciferase, cherry-picked, counter-screen for Shn3 inhibitor project, dose response (AID 624133). The format is functional.
For experiment [7], the target named is T2, Sphingosine 1-phosphate receptor 4 (Homo sapiens, UniProt O95977).
T2 sequence (O95977 whole entry): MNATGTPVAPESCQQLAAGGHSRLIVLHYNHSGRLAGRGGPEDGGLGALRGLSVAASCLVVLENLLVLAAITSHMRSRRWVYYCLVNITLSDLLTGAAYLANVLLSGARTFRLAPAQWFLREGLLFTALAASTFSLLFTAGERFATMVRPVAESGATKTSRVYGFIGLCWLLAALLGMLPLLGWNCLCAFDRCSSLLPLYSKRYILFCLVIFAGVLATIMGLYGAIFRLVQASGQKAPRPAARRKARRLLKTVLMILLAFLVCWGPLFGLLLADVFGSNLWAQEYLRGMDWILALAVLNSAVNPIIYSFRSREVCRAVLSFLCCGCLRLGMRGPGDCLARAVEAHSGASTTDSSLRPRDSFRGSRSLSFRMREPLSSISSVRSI
The experiment in a line: Fluorescence dose response cell-based high throughput screening assay for antagonists of the Sphingosine 1-Phosphate Receptor 4 (S1P4). [Related pubchem assays: 1524 (Confirmation in triplicates.), 1510 (Primary screen.)]. The format is functional.

In experiment [8] the target is Sphingosine 1-phosphate receptor 1 (Homo sapiens, UniProt P21453). The format is functional.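 Note: Tango beta-arrestin reporter U2OS cells stimulated with S1P near its EC80; inhibitor potency meaning antagonism of receptor activation by the natural agonist.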
Chain of Sphingosine 1-phosphate receptor 1 (P21453 whole entry): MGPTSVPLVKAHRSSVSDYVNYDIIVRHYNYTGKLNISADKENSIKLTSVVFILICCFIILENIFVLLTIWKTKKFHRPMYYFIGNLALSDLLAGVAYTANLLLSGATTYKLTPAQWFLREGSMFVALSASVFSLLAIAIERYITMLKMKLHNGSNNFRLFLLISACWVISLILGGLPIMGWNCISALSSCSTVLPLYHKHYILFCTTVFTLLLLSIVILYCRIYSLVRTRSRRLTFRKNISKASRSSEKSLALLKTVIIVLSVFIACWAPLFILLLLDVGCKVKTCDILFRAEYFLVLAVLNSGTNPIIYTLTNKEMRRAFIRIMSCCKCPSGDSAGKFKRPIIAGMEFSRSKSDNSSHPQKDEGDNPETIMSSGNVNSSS
The target of experiment [9] is T3, Replicative DNA helicase DnaB (Mycobacterium tuberculosis, UniProt P9WMR3).
T3 sequence (P9WMR3 whole entry): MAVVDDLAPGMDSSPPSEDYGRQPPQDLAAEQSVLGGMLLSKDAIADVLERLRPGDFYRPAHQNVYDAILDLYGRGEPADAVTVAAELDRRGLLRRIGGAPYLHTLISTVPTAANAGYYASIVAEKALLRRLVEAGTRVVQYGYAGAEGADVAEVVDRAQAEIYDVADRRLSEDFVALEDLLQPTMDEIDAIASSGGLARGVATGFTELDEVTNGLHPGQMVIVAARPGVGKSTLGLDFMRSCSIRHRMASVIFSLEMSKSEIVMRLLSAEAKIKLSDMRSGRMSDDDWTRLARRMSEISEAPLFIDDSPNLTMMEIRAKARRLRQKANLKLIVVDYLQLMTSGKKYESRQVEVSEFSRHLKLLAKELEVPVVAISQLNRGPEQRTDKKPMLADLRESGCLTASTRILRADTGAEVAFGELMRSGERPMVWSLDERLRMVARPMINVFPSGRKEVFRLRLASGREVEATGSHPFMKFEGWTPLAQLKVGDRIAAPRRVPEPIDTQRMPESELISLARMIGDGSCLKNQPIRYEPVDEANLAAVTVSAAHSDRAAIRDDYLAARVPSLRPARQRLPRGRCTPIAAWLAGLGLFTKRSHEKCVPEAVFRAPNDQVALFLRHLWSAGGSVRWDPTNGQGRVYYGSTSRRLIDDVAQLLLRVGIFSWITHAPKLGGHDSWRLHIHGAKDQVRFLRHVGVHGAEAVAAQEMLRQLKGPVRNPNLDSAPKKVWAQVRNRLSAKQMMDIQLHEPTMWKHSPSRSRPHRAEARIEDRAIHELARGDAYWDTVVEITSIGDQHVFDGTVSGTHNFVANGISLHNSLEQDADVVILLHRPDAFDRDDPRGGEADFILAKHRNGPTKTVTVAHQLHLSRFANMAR
As to the kind of experiment: DnaB intein splicing inhibitors, dose response, biochemical, cell-free fluorescence (AID 449749). The experiment is classed as functional.

A short description of experiment [10]: reduction of Shn3 3'UTR-driven luciferase in osteoblasts – cell-based, Clone20 osteoblasts, firefly luciferase, cherry-picked, dose response (AID 624132).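 Note: firefly luciferase luminescence from reporter carrying the Shn3 3'UTR in osteoblasts.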 The experiment is classed as functional.
A further experiment deals with T4, Protein RecA (Mycobacterium tuberculosis, UniProt P9WHJ3).
T4 sequence (P9WHJ3 whole entry): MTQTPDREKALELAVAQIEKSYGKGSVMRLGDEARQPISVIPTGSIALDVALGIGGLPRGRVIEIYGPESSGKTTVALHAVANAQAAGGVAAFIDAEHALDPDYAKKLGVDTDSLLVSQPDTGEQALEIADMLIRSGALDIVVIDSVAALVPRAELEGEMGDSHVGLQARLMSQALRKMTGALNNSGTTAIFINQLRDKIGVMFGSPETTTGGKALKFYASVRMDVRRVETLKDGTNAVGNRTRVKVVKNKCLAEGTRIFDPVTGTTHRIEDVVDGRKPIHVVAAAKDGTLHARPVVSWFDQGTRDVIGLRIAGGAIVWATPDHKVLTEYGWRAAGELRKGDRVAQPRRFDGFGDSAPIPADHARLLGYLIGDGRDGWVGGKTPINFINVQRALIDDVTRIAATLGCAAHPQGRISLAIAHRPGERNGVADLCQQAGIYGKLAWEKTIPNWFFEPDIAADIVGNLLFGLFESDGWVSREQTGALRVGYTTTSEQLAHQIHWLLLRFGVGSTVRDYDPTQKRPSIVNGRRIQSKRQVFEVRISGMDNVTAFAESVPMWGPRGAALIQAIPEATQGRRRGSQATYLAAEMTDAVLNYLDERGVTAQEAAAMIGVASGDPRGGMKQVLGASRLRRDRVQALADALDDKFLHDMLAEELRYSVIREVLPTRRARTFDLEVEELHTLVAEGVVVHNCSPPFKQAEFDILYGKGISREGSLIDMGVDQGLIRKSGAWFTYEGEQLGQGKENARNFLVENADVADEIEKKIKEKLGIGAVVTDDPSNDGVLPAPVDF
The experiment in a line: Fluorescence Cell-Free Homogeneous Dose Retest to Identify Inhibitors of RecA-Intein Splicing Activity. [Related pubchem assays (depositor defined):AID2097, AID2223, AID489010, AID492950]. The experiment is classed as functional.

Experiment [11] in a line: Luminescence Cell-Based Dose Response HTS to Identify Inhibitors of 5'UTR Stem-Loop Driven Prion Protein mRNA Translation in H4 Neuroglioblastoma Cells. [Related pubchem assays: 1827 (Project Summary), 1813 (Primary HTS)]. The experiment is classed as functional.
Experiment [12] can be described thus: luciferase reporter signal suppression in cells – H4 neuroglioma cells, luminescence, dose response (AID 1990). The format is functional, cell-based.
The nature of experiment [13]: alpha-synuclein stem-loop luciferase translation blockers – H4 neuroglioma cells, luminescence, confirmation (AID 1988). The format is functional, cell-based.
The next experiment deals with Prothrombin (Bos taurus, UniProt P00735). As to the kind of experiment: thrombin protease inhibitors – biochemical, fluorescence polarization, uHTS hits, dose response (AID 602369). The experiment is classed as functional.
Experiment [14] addresses T5, Microphthalmia-associated transcription factor (Homo sapiens, UniProt O75030).
T5 sequence (O75030 whole entry): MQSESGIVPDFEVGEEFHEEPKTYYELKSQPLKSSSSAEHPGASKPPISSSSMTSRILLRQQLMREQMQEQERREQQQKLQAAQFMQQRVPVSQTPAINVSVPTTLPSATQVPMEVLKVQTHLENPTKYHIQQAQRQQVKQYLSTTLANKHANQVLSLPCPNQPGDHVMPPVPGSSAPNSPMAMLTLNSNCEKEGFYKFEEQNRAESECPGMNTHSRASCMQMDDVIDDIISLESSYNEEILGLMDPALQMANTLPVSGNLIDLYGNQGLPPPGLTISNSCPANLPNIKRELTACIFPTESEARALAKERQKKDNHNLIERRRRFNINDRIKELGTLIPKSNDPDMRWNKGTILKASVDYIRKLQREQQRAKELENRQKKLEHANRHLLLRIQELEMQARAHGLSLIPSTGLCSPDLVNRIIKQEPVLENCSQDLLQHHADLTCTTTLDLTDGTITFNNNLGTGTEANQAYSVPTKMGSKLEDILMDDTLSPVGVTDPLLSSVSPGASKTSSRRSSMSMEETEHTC
The experiment in a line: reducers of TRPM1 reporter luminescence, concentration series – cell-based, SK-MEL-5, cherry-picked, set 3, MITF inhibitor project, dose response (AID 493073).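 Note: SK-MEL-5 melanoma cells with luciferase driven by the MITF target TRPM1 promoter.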 The experiment is classed as functional.

Experiment [15] deals with 26S proteasome non-ATPase regulatory subunit 14 (Homo sapiens, UniProt O00487). The experiment in a line: inhibition of proteasome subunit RPN11 – biochemical, fluorescence polarization, uHTS hits, confirmation (AID 602368). The format is functional.
Chain of 26S proteasome non-ATPase regulatory subunit 14 (O00487 whole entry): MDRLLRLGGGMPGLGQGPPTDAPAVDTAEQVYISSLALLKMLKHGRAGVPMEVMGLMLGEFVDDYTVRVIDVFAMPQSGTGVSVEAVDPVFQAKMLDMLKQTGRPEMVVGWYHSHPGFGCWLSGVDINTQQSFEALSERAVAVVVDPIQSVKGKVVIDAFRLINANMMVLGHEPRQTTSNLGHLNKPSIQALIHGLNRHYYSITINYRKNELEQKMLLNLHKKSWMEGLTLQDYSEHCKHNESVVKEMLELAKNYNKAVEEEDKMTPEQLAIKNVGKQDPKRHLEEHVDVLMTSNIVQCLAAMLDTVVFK
Experiment [16] is described as follows: mitochondrial function rescue without frataxin homolog – Friedreich's ataxia, plus single-dose screen, dose response (AID 1465).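 Note: yeast depleted of Yfh1p frataxin homolog grown on glycerol needing respiration; WST-1 tetrazolium dye reduction as measure of cellular dehydrogenase metabolic activity.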 The experiment is classed as functional.
Experiment [17] addresses 72 kDa type IV collagenase (Homo sapiens, UniProt P08253). The experiment in a line: Dose Response validation of uHTS RPN11 inhibitor hits using a MMP-2 Fluorescence assay. The format is functional.
For experiment [18], the target named is Induced myeloid leukemia cell differentiation protein Mcl-1 (Homo sapiens, UniProt Q07820). As to the kind of experiment: blockers of MCL1 binding to BIM peptide – biochemical, fluorescence polarization, BIM-BH3 peptide, 1536-well, dose response (AID 2217).
Chain of Induced myeloid leukemia cell differentiation protein Mcl-1 (Q07820 whole entry): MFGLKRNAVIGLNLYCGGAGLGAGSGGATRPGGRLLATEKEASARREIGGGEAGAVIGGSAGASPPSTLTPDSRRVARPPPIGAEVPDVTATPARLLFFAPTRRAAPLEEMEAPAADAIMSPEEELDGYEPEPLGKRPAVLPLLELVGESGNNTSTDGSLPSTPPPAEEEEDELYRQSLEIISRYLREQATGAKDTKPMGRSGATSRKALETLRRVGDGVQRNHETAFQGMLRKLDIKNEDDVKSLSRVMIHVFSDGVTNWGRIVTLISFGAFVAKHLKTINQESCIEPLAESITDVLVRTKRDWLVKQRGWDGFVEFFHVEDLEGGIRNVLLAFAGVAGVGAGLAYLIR
For another experiment, the target named is Bcl-2-like protein 1 (Homo sapiens, UniProt Q07817). As to the kind of experiment: blockers of BCLXL peptide binding – biochemical, fluorescence polarization, 1536-well, selectivity assay for MCL1 inhibitor project, dose response (AID 2218).
Chain of Bcl-2-like protein 1 (Q07817 whole entry): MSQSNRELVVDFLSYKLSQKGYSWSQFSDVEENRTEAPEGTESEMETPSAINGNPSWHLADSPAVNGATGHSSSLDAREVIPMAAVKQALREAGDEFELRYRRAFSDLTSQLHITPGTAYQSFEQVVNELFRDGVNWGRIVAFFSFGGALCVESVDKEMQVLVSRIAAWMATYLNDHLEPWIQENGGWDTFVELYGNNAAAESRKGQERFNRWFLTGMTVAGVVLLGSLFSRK
For experiment [19], the target named is ADP-ribosylation factor GTPase-activating protein 1 (Rattus norvegicus, UniProt Q62848). As to the kind of experiment: Fluorescence polarization-based biochemical high throughput dose response screening assay to identify inhibitors of ADP-ribosylation factor GTPase activating protein 1 (ARFGAP1). The format is functional.
Chain of ADP-ribosylation factor GTPase-activating protein 1 (Q62848 whole entry): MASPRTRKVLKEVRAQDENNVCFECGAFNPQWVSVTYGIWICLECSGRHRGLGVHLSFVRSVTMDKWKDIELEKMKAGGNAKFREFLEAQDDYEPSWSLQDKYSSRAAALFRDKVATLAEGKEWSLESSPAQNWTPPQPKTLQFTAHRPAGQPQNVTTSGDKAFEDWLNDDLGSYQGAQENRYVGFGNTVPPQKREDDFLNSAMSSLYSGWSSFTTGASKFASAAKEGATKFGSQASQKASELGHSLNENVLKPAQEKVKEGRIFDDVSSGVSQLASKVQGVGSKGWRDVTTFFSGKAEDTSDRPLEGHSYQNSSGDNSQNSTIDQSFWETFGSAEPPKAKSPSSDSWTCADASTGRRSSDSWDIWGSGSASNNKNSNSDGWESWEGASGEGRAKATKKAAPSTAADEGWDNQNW
The target in another experiment is T6, Estrogen receptor (Homo sapiens, UniProt P03372).
T6 sequence (P03372 whole entry): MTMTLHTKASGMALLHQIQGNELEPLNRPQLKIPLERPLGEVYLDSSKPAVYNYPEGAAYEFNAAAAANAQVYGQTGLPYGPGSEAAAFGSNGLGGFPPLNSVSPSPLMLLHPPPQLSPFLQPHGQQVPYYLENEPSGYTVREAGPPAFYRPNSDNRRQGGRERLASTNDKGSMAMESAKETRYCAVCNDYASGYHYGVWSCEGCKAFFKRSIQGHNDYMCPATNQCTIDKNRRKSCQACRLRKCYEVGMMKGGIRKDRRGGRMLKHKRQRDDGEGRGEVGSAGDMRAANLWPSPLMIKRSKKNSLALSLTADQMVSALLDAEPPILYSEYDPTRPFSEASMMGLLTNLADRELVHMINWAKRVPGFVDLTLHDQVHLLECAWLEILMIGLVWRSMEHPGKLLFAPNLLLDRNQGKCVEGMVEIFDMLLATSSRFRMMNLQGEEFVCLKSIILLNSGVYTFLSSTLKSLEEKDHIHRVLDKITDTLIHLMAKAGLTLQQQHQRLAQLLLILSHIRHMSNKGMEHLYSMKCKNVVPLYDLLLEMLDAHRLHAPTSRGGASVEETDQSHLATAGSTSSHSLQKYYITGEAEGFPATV
As to the kind of experiment: ERα coactivator recruitment enhancers – biochemical, TR-FRET, ERα LBD, dose response (AID 737). A general note: In TR-FRET formats the signal depends on donor and acceptor labels being close together.

T1 sequence (P98170 whole entry): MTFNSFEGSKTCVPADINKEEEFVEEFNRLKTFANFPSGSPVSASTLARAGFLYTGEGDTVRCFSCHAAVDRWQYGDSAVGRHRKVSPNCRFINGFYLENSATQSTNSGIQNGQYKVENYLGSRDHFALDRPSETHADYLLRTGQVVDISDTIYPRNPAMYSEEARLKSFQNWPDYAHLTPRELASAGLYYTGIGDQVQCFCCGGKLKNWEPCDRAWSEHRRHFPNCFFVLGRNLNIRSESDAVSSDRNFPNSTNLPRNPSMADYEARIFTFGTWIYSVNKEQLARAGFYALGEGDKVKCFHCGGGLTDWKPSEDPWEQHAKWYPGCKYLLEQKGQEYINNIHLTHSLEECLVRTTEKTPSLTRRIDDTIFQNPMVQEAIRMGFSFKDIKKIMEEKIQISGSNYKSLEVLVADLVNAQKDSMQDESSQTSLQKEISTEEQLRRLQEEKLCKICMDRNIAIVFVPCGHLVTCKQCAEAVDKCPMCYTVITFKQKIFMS
Chain of 72 kDa type IV collagenase (P08253 whole entry): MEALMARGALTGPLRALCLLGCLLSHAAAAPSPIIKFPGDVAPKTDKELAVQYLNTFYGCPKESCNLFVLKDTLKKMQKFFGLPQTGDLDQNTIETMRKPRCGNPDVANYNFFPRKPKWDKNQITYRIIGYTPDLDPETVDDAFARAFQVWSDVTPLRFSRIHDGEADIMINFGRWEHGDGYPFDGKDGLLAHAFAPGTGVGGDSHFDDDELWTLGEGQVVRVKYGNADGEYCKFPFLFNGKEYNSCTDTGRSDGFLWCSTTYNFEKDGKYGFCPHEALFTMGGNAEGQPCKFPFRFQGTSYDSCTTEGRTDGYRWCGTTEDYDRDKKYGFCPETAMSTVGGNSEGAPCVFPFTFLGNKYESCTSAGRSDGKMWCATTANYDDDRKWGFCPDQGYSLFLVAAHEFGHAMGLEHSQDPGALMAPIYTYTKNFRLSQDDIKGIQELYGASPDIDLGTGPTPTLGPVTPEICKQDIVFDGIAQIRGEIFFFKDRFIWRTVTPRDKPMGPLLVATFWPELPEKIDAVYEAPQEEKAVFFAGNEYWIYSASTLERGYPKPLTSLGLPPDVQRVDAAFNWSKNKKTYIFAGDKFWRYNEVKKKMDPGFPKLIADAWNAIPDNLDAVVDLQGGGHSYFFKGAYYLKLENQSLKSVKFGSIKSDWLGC
Chain of Sphingosine 1-phosphate receptor 2 (O95136 whole entry): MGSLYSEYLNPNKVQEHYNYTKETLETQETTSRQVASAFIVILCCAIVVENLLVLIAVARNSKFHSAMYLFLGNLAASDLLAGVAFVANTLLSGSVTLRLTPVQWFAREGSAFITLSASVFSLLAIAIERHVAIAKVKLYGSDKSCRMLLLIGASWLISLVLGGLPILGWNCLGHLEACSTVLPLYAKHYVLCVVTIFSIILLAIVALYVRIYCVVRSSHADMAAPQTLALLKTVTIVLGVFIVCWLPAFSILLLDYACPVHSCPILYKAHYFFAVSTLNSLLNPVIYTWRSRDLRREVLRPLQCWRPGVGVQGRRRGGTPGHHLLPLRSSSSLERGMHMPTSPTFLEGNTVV

For the compound `Cc1ccc(C(=O)OCC(=O)c2cc(C)n(Cc3ccccc3)c2C)o1`, the 50% effective concentration (EC50) (commonly the concentration that produces a half-maximal response) in experiment [1] was > 30 µM (not active).

In the case of `CCCNC(=O)c1cc(SC)ccc1Cl`, the IC50 (as a rule, the concentration that inhibits the measured activity by half) in experiment [2] was > 100 µM (inactive); in [3] it was > 100 µM (not active).

For `CCOc1ccc(NC(=O)N(C2CCCCC2)C2CCN(C(C)=O)CC2)cc1`, in [4], the 50% inhibitory concentration (IC50) was > 100 µM (active).

For `CC(C)c1nnc(NC(=O)CCS(=O)(=O)c2nc(-c3cccs3)cc(C(F)(F)F)n2)s1`, the results for the EC50 (in [5]; on Protein RecA) were 33.7 µM (inactive) and 30.4 µM (inconclusive), respectively. The half-maximal activity concentration (AC50) (usually the midpoint of the concentration-response curve, whichever way the signal moves) in experiment [6] is 6.01 µM (active); in [9], > 120 µM (inactive); in experiment [10], 3.02 µM (active). In addition, the concentration for half-maximal inhibition (IC50) in experiment [7] was 1.1 µM (active); in experiment [8] it was 13.5 µM (not active).

For the compound `CCN(CCO)c1ccc(N=Nc2cc(C)[nH]n2)cc1`, the EC50 was 4.08 µM (active) in experiment [11], 5.43 µM (active) in [12], 4.94 µM (active) in [13] and > 100 µM (active) in experiment [16]. In addition, the IC50 at Prothrombin was 61.2 µM (active); in experiment [15], 53 µM (active); in experiment [17] it was > 100 µM (inactive). Moreover, the AC50 in experiment [14] is 3.6 µM (active).

As for `Clc1cccc(C2Nc3cccc4cccc(c34)N2)c1`, the IC50 is on record as 28.6 µM (not active) in [18] and > 109 µM (not active) at Bcl-2-like protein 1.

With `COc1ccc(CCn2c(SCC(=O)Nc3cc(C)on3)nc3ccsc3c2=O)cc1OC`, in [19], the IC50 is 44 µM (inactive). The 50% effective concentration (EC50) on Estrogen receptor is 12.8 µM (active).
